Measurements as given in PMC10279719 (Nature Communications, 2023).

Columns and labels:
CrkII^NSH3 [1] = molecular target: T1, CrkII^NSH3 (Homo sapiens, UniProt P46108); assay: SPR, PEAK PRM and tandem peptides binding to immobilised CrkII NSH3 domain; conditions: peptide analyte over amine-coupled CrkII NSH3 (CM5); Biacore S200, HBS-TP pH 7.4, 20 °C; steady-state 1:1 fit; mean ± S.E.M. (N ≥ 3) or SD (N = 2); read-out: SPR KD, CrkII N-SH3
T1 construct: CrkII^NSH3; UniProt P46108-1, residues 134–191; 8-His tag with TEV protease cleavage site (N); made in house; host or cells: E. coli C41 (DE3)
T1 sequence (P46108 134-191): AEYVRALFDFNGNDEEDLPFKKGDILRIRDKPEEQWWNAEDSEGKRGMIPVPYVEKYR
Method: SPR binding studies of PEAK PRM peptides to CrkII^NSH3 were performed using a Biacore S200 Instrument (Cytiva). Purified CrkII^NSH3 was diluted to 5 µg ml^−1 in 10 mM sodium acetate pH 4.0 and amine coupled at 25 °C to a Series S CM5 sensor chip, in HBS-N running buffer (20 mM HEPES pH 7.4, 150 mM NaCl) to a final immobilization level of 1100–1400 response units (RU), followed by surface deactivation using 1 M ethanolamine. A blank activation/deactivation was used for the reference surface. Peptide binding studies were performed at 20 °C in HBS-TP running buffer (20 mM HEPES pH 7.4, 150 mM NaCl, 1 mM TCEP, 0.005% (v/v) Tween-P20). […] Peptide stocks were further diluted to in running buffer to 10 or 20 µM and prepared as a 11-point concentration series (2-fold serial dilution, […] for PEAK PRM peptides, or 20 µM–20 nM for PEAK tandem motif peptides). Samples were injected in a multi-cycle run (flow rate 30 µl min^−1, contact time of 60 s, dissociation 120 s) without regeneration. Sensorgrams were double referenced, and steady-state binding data fitted using a 1:1 binding model using Biacore S200 Evaluation Software (Cytiva, v. 1.1).

14-3-3γ = molecular target: T2, 14-3-3γ (Homo sapiens, UniProt P61981); assay: ITC, 14-3-3γ titrated into PEAK3 tandem peptides; assay type: binding; conditions: binary, 14-3-3γ (syringe) into peptide (20 µM, cell), 25 °C, 20 mM HEPES pH 7.4, 150 mM NaCl, 1 mM TCEP, single-site fit, mean ± S.E.M. of N = 4 (N = 1 for non-phosphorylated peptide)
T2 construct: 14-3-3γ (UniProt P61981-1; residues 1–247); 8-His tag with TEV protease cleavage site (N); made in house; host or cells: E. coli C41 (DE3)
T2 sequence (P61981 1-247): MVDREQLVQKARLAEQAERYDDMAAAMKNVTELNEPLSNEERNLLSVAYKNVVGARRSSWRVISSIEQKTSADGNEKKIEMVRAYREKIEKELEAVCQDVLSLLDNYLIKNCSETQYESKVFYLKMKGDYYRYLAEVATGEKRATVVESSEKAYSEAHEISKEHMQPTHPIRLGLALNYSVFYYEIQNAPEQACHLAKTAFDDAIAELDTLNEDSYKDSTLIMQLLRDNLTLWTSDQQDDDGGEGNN
Method: (§1) ITC binding experiments were conducted using a MicroCal iTC200 instrument (Malvern Instruments). Titrations were conducted at 25 °C in reverse mode (peptide in cell, protein in syringe) and consisted of 19 injections of 2 μl […] at a rate of 2 s μl^−1 at 90 s time intervals, whilst stirring at 1000 rpm. An initial injection of 0.4 μl protein was made and discarded during data analysis. Proteins (14-3-3ɣ or CrkII^NSH3) were first dialyzed overnight at 4 °C into ITC buffer (20 mM HEPES pH 7.4, 150 mM NaCl, 1 mM TCEP), filtered and degassed under vacuum. […] Following the first titration, excess solution was removed from the cell, and the syringe was washed and dried. […] All data were fitted to a single binding site model to obtain the stoichiometry (N), dissociation constant (KD) and the enthalpy of binding (ΔH), using MicroCal PEAQ-ITC Analysis software (v.1.41).

14-3-3ε = molecular target: T3, 14-3-3ε (Homo sapiens, UniProt P62258); assay: SPR, PEAK tandem peptides binding to immobilised 14-3-3ε; conditions: peptide analyte over amine-coupled 14-3-3ε (CM5); Biacore S200, HBS-TP pH 7.4, 20 °C; steady-state 1:1 fit; mean ± S.E.M.; read-out: SPR KD, 14-3-3ε (epsilon)
T3 construct: 14-3-3ε (UniProt P62258-1; residues 1–255); 8-His tag with TEV protease cleavage site (N); made in house; host or cells: E. coli C41 (DE3)
T3 sequence (P62258 1-255): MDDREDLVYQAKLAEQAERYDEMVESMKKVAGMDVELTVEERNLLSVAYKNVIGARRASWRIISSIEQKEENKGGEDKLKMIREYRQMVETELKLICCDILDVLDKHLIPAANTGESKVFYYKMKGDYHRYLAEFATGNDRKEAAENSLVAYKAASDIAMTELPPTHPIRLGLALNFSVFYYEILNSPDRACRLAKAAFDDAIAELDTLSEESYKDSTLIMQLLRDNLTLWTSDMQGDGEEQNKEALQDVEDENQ
Method: Purified […]3 was diluted to 5 μg ml^-1 in 10 mM sodium acetate pH 4.0 and amine coupled at 25 °C to a Series S CM5 sensor chip, in HBS-N running buffer (20 mM HEPES pH 7.4, 150 mM NaCl) to a final immobilization level of 1100-1400 response units (RU), followed by surface deactivation using 1 M ethanolamine. A blank activation/deactivation was used for the reference surface. […] PEAK PRM peptides: […] Samples were injected in a multi-cycle run (flow rate 30 μl min^-1, contact time of 60 s, dissociation 120 s) without regeneration. Sensorgrams were double referenced, and steady-state binding data fitted using a 1:1 binding model using Biacore S200 Evaluation Software (Cytiva, v. 1.1). […] Representative sensorgrams and fitted dissociation constant (KD) values, depicted as mean ± S.E.M.

CrkII^NSH3 [2] = molecular target: T1, CrkII^NSH3; assay: ITC, CrkII NSH3 titrated into PEAK3 tandem peptides (binary) or peptide:14-3-3γ complexes (ternary); assay type: binding; conditions: CrkII NSH3 (400 µM, syringe) into peptide pre-saturated with 14-3-3γ (16.8 µM, cell), 25 °C, HEPES pH 7.4, mean ± S.E.M. of N = 4 (pS69) or N = 1 (non-phosphorylated), read-out: ITC KD, CrkII N-SH3, ternary
Method: as §1

Kd (CrkII^NSH3 [1]): 0.6 ± 0.02 µM
ITC KD, 14-3-3γ (14-3-3γ): no appreciable binding
ITC KD, 14-3-3γ (14-3-3γ; 54–74): No binding
ITC KD, 14-3-3γ (14-3-3γ; listed as PEAK3 tandem): no binding
Kd (14-3-3ε): > 100 µM
Kd (CrkII^NSH3 [2]): 0.7 µM
Compound: CC[C@H](C)[C@H](NC(=O)[C@H](CCCCN)NC(=O)[C@H](CCCCN)NC(=O)[C@@H]1CCCN1C(=O)[C@H](CC(C)C)NC(=O)[C@@H]1CCCN1C(=O)[C@@H]1CCCN1C(=O)[C@@H]1CCCN1C(=O)[C@H](CC(C)C)NC(=O)[C@@H]1CCCN1C(C)=O)C(=O)N[C@@H](CC(C)C)C(=O)N[C@H](C(=O)N[C@@H](CCCNC(=N)N)C(=O)N[C@H](C(=O)N[C@@H](CCC(N)=O)C(=O)N[C@@H](CO)C(=O)N[C@@H](CC(C)C)C(=O)N1CCC[C@H]1C(=O)N[C@H](C(=O)N[C@@H](CCCNC(=N)N)C(=O)N[C@@H](CCCNC(=N)N)C(N)=O)[C@@H](C)O)[C@@H](C)O)[C@@H](C)O (single isomer, unassigned) [PEAK3^tandem]
